Measured values published in patent US6706740B2, “Fungicidal heterocyclic aromatic amides and their compositions, methods of use and preparation” (Dow AgroSciences LLC, priority 1999, dated 2004).
Like-named read-outs stand apart in the source and are kept apart here.

What was measured:
[1] = system: Magnaporthe grisea (Pyricularia oryzae—PYRIOR); experiment: microbe, parasite or virus in culture; assay type: cell-based; conditions: Pyricularia oryzae, read-out: PYRIOR in vitro Growth Inhibition
[2] = system: Rhizoctonia solani (RHIZSO); experiment: microbe, parasite or virus in culture; assay type: cell-based; conditions: Rhizoctonia solani, read-out: RHIZSO in vitro Growth Inhibition
[3] = system: Mycosphaerella graminicola (Septoria tritici—SEPTTR); experiment: In vitro fungal growth inhibition, Mycosphaerella graminicola (SEPTTR); assay type: cell-based; conditions: Zymoseptoria tritici, read-out: SEPTTR in vitro Growth Inhibition
[4] = system: Stagonospora nodorum (Leptosphaeria nodorum—LEPTNO); experiment: In vitro fungal growth inhibition, Stagonospora nodorum (LEPTNO); assay type: cell-based; conditions: Leptosphaeria, read-out: LEPTNO in vitro Growth Inhibition
[5] = system: Ustilago maydis (USTIMA); experiment: microbe, parasite or virus in culture; assay type: cell-based; conditions: Mycosarcoma maydis, read-out: USTIMA in vitro Growth Inhibition
[6] = system: Phytophthora infestans (PHYTIN); experiment: microbe, parasite or virus in culture; assay type: cell-based; conditions: Phytophthora infestans, read-out: PHYTIN in vitro Growth Inhibition
[7] = system: Phytophthora infestans—PHYTIN; experiment: whole plant or invertebrate; assay type: in vivo; conditions: for pest or weed control at 100 ppm: Phytophthora, in Solanum lycopersicum, 24 h, read-out: PHYTIN in vivo 1 Day Protectant
[8] = system: Puccinia recondita—PUCCRT; experiment: Brown Rust of Wheat, in vivo whole plant, 24 Hour Protectant; conditions: Puccinia, control of fungal infection vs untreated plants, read-out: PUCCRT in vivo 1 Day Protectant
[9] = system: Erysiphe graminis—ERYSGT; experiment: Powdery Mildew of Wheat, in vivo whole plant, 24 Hour Protectant; conditions: Erysiphe, control of fungal infection vs untreated plants, read-out: ERYSGT in vivo 1 Day Protectant
[10] = system: Septoria tritici—SEPTTR; experiment: Leaf Blotch of Wheat, in vivo whole plant, 24 Hour Protectant; conditions: control of fungal infection vs untreated plants; for pest or weed control at 100 ppm: Zymoseptoria tritici, 24 h, read-out: SEPTTR in vivo 1 Day Protectant
[11] = system: Leptosphaeria nodorum—LEPTNO; experiment: Glume Blotch of Wheat, in vivo whole plant, 24 Hour Protectant; conditions: control of fungal infection vs untreated plants; for pest or weed control at 100 ppm: Leptosphaeria, read-out: LEPTNO in vivo 1 Day Protectant
[12] = 100 ppm spray, wheat, 24 hour protectant
[13] = wheat plants sprayed at 100 ppm, inoculated after 24 hours
[14] = 100 ppm spray, 24 hour protectant, wheat

| SMILES | inhibition at 25 ppm [1] [%] | inhibition at 25 ppm [2] [%] | inhibition at 25 ppm ([3]; 25 ppm in growth medium) [%] | inhibition at 25 ppm ([4]; 25 ppm in growth medium) [%] | inhibition at 25 ppm [5] [%] | inhibition at 25 ppm [6] [%] | pest or weed control at 100 ppm [7] [%] | pest or weed control at 100 ppm [8, 12] [%] | pest or weed control at 100 ppm [9, 12] [%] | pest or weed control at 100 ppm [10, 12] [%] | pest or weed control at 100 ppm [11, 12] [%] | further results |
| --- | --- | --- | --- | --- | --- | --- | --- | --- | --- | --- | --- | --- |
| COC(=O)C(COC(=O)CC(C)OC(=O)C(C)C)NC(=O)c1nccc(OC)c1O (stereo not drawn) [Compound 347] | < 80 | < 80 | < 80 | < 80 | < 80 | < 80 | < 25 | 25 to 74 | < 25 | < 25 | 25 to 74 | – |
| COc1ccnc(C(=O)N[C@@H]2[C@@H](O)[C@H](O)[C@@H](CO)O[C@@H]2O)c1O [Compound 334, N-(3-HYDROXY-4-METHOXY-2-PYRIDYLCARBONYL)-2-AMINO-2-DEOXY-alpha-D-GLUCOPYRANOSE] | < 80 | < 80 | < 80 | < 80 | < 80 | < 80 | < 25 | < 25 | < 25 | < 25 | 25 to 74 | – |
| COc1ccnc(C(=O)N[C@H]2COC(=O)[C@H](Cc3ccccc3)[C@@H](OC(=O)C3CC3)[C@H](C)OC2=O)c1O [Compound 387] | > 80 | > 80 | > 80 | > 80 | > 80 | < 80 | < 25 | 25 to 74 | 25 to 74 | 25 to 74 | – | LEPTNO in vivo 1 Day Protectant [11, 12]: + + |
| COc1cc(Br)nc(C(=O)N[C@H]2COC(=O)[C@H](Cc3ccccc3)[C@@H](OC(=O)C3CCCCC3)[C@H](C)OC2=O)c1O [Compound 501] | > 80 | < 80 | – | – | > 80 | < 80 | < 25 | – | – | – | – | inhibition at 25 ppm ([3]; 25 ppm in the growth medium): > 80%; inhibition at 25 ppm ([4]; 25 ppm in the growth medium): > 80%; pest or weed control at 100 ppm [8, 13]: 25 to 74%; pest or weed control at 100 ppm [9, 13]: < 25%; pest or weed control at 100 ppm [10, 13]: < 25%; pest or weed control at 100 ppm [11, 13]: 25 to 74% |
| COc1ccnc(C(=O)N[C@@H]2CC3CC2C2C(=O)N(CC(C)C)C(=O)C32)c1O (stereo partly drawn) [Compound 303] | < 80 | < 80 | < 80 | < 80 | < 80 | < 80 | 25 to 74 | – | – | – | – | pest or weed control at 100 ppm [8, 14]: < 25%; pest or weed control at 100 ppm [9, 14]: < 25%; pest or weed control at 100 ppm [10, 14]: 25 to 74%; pest or weed control at 100 ppm [11, 14]: 25 to 74% |
| COc1ccnc(C(=O)NC2C3CC4C(C3Cl)C42)c1O (stereo not drawn) [Compound 304] | < 80 | > 80 | < 80 | < 80 | < 80 | < 80 | < 25 | – | – | – | – | pest or weed control at 100 ppm [8, 14]: < 25%; pest or weed control at 100 ppm [9, 14]: < 25%; SEPTTR in vivo 1 Day Protectant [10, 14]: + +; pest or weed control at 100 ppm [11, 14]: 25 to 74% |
| O=C(Nc1ccccc1Oc1cccc(C(F)(F)F)c1)c1nc(Br)ccc1O [Compound 492] | < 80 | < 80 | – | – | < 80 | < 80 | < 25 | – | – | – | – | inhibition at 25 ppm ([3]; 25 ppm in the growth medium): < 80%; inhibition at 25 ppm ([4]; 25 ppm in the growth medium): < 80%; pest or weed control at 100 ppm [8, 13]: < 25%; pest or weed control at 100 ppm [9, 13]: < 25%; pest or weed control at 100 ppm [10, 13]: 25 to 74%; pest or weed control at 100 ppm [11, 13]: < 25% |
| O=C(NC(Cc1ccccc1)c1ccccc1)c1nc(Br)ccc1O (stereo not drawn) [Compound 491] | < 80 | < 80 | – | – | < 80 | > 80 | < 25 | – | – | – | – | inhibition at 25 ppm ([3]; 25 ppm in the growth medium): < 80%; inhibition at 25 ppm ([4]; 25 ppm in the growth medium): < 80%; pest or weed control at 100 ppm [8, 13]: < 25%; pest or weed control at 100 ppm [9, 13]: < 25%; pest or weed control at 100 ppm [10, 13]: < 25%; pest or weed control at 100 ppm [11, 13]: < 25% |
| COc1ccnc(C(=O)Nc2ccc(/C(=N/O)c3cccc(C(F)(F)F)c3)cc2)c1O [Compound 407] | < 80 | < 80 | > 80 | < 80 | < 80 | < 80 | < 25 | < 25 | < 25 | 25 to 74 | 25 to 74 | – |
| COc1ccnc(C(=O)NC2COC(=O)CC(c3ccccc3)C(=O)OC2)c1O (stereo not drawn) [Compound 375] | < 80 | < 80 | < 80 | < 80 | < 80 | < 80 | < 25 | < 25 | < 25 | 25 to 74 | 25 to 74 | – |
| COc1ccnc(C(=O)Nc2ccc(C(=O)c3ccc(C(F)(F)F)cc3)cc2)c1O [Compound 406] | < 80 | < 80 | < 80 | < 80 | < 80 | < 80 | < 25 | < 25 | 25 to 74 | 25 to 74 | 25 to 74 | – |
| COc1ccnc(C(=O)N[C@@H]2OC[C@@H](OC(C)=O)[C@H](OC(C)=O)[C@H]2OC(C)=O)c1O [Compound 330] | < 80 | < 80 | < 80 | < 80 | < 80 | < 80 | < 25 | < 25 | < 25 | < 25 | < 25 | – |
| CC(C)C(=O)O[C@H]1[C@H](C)OC(=O)[C@@H](NC(=O)c2nsnc2O)COC(=O)[C@@H]1Cc1ccccc1 [Compound 553] | > 80 | > 80 | – | – | > 80 | > 80 | – | – | – | – | – | inhibition at 25 ppm ([3]; 25 ppm in the growth medium): > 80%; inhibition at 25 ppm ([4]; 25 ppm in the growth medium): > 80%; PHYTIN in vivo 1 Day Protectant ([7]; tomato plants sprayed at 100 ppm, inoculated after 24 hours, control of fungal infection vs untreated plants): + +; pest or weed control at 100 ppm [8, 13]: 25 to 74%; pest or weed control at 100 ppm [9, 13]: 25 to 74%; pest or weed control at 100 ppm [10, 13]: 25 to 74%; LEPTNO in vivo 1 Day Protectant [11, 13]: + + |
| COc1ccnc(C(=O)Nc2ccc(Oc3ccc(C)cc3)cc2)c1O [Compound 417] | > 80 | < 80 | > 80 | < 80 | < 80 | < 80 | < 25 | < 25 | < 25 | < 25 | – | LEPTNO in vivo 1 Day Protectant [11, 12]: + + |
| COc1ccnc(C(=O)N[C@H]2CC3CC2[C@@H](COCc2cccc(C(F)(F)F)c2)C3)c1O (stereo partly drawn) [Compound 295] | > 80 | > 80 | > 80 | > 80 | < 80 | < 80 | < 25 | – | – | – | – | pest or weed control at 100 ppm [8, 14]: 25 to 74%; pest or weed control at 100 ppm [9, 14]: < 25%; SEPTTR in vivo 1 Day Protectant [10, 14]: + +; pest or weed control at 100 ppm [11, 14]: 25 to 74% |
